Results published in patent US11759442B2, “Use of short chain fatty acids for the treatment and prevention of diseases and disorders” (Temple University-Of The Commonwealth System of Higher …, priority 2017, dated 2023).

Experiments:
GPR-109a receptor = GPR-109a receptor (Homo sapiens, UniProt Q8TDS4); details: read-out: EC50 of GPR-109a receptor activation; cited from earlier work
IL-6 = details: cited from earlier work
[1] = test system: ileum inflammatory cytokines; details: neonatal piglets, oral ~10 ml of 150 mmol/L; cited from earlier work

GPR-109a receptor, sequence (Q8TDS4 whole entry): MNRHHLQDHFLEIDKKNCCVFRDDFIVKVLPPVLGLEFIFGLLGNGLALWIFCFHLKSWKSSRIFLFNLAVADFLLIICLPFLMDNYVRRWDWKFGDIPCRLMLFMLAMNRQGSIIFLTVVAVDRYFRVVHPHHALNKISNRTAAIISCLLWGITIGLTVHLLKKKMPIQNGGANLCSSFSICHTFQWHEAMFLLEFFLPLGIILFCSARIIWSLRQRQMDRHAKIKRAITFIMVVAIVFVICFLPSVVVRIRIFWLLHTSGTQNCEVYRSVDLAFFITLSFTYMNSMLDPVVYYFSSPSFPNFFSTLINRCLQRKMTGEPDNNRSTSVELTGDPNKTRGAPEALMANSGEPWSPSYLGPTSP

CCCC(=O)O [butyrate]
re-emergence of psoriasis on left elbow after ceasing the regimen (psoriasis skin lesions; FIG. 2 patient, one 600 mg pill 3 times daily for 16 days, then stopped): 20 days | time until psoriasis came back after stopping the regimen (psoriasis skin lesions; FIG. 5 fourth patient): 20 to 25 days | side effects during treatment (psoriasis skin lesions; FIG. 5 fourth patient, treatment for long period of time): no side effects were noted | EC50 (GPR-109a receptor): ~1500 µM

CCC(=O)O [propionate]
effect on IL-6 (IL-6): inhibit IL-6

CCCC(=O)[O-].[Na+] [sodium butyrate]
effect on ileum inflammatory cytokines [1]: modulated the ileum inflammatory cytokines
